Data published in publication PMC7160673, “A Degenerate Peptide Library Approach to Reveal Sequence Determinants of Methyllysine-Driven Protein Interactions” (Frontiers in Cell and Developmental Biology, 2020).
Where a SMILES comes first, the peptide text is derived from it. Where no end group is shown, it is not given here. [ ]: non-standard residue; d: D form. The star is where a group is joined. 5FAM = O=C1OC2(c3ccc(O)cc3Oc3cc(O)ccc32)c2ccc(C(=O)*)cc21; Lys(Me3) = C[N+](C)(C)CCCC[C@H](N)C(=O)O; Peg = not defined here

What was measured:
Format in all cases: binding
[1] = tested on: CST 9733 (anti-H3K27me3); test: Histone peptide microarray, CST 9733; conditions: histone peptide array signal normalized to the highest peptide average per subarray, hits; CST 9733 LOT:14 dilution 1:5,000
[2] = tested on: Active Motif #39161, anti-H3K9me3; test: Histone peptide microarray, Active Motif 39161; conditions: Active Motif 39161 (anti-H3K9me3) hits
[3] = tested on: 53BP1 TTD; test: Histone peptide microarray, 53BP1 TTD; conditions: 53BP1 TTD hits, average signal per peptide
How it was run: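 Histone peptides were printed as microarrays and probed with protein or antibody in 25 mM HEPES pH 7.5, 100 mM NaCl, 0.5% BSA (w/v), 0.1% NP-40. Between steps, slides were washed 3 × 5 min in PBS with 0.1% Tween-20. Bound GST-tagged protein was detected with anti-GST (1:2,000), then AlexaFluor 647 secondary (1:5,000).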

[4] = tested on: Abcam #ab8895, anti-H3K4me1; test: Histone peptide microarray, Abcam ab8895; conditions: Abcam ab8895 (anti-H3K4me1) hits, average signal per peptide
[5] = target: T1, MPP8 chromo (Homo sapiens, UniProt Q99549); test: Histone peptide microarray, MPP8 chromo; conditions: normalized histone peptide array signal, hits; hybridization with 1 M MPP8 chromo (so in the source); two subarrays
T1 construct: 50-118; made in house; host or cells: E. coli BL21
T1 sequence (Q99549 50-118): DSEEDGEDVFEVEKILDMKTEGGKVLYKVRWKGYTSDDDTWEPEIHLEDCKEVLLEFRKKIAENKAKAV
Description: (§1) Peptide microarrays were fabricated using an Aushon 2470 microarrayer and used as described ([Cornett et al., 2017]) with the following modifications. Protein and antibody hybridization steps were performed in buffer containing 25 mM HEPES pH 7.5, 100 mM NaCl, 0.5% BSA (w/v), and 0.1% NP-40. Slides were washed 3 × 5 min in PBS supplemented with 0.1% Tween-20 between each hybridization step. Antibodies used were primary anti-GST (Sigma #7781, 1:2,000 dilution) and an AlexaFluor 647-labeled secondary antibody (Life Technologies A-21245, 1:5,000 dilution). […] Full lists of peptides queried by array analysis are in Supplementary Table S2.

[6] = target: T2, CDYL2 chromo (Homo sapiens, UniProt Q8N8U2); test: Histone peptide microarray, CDYL2 chromo; conditions: normalized histone peptide array signal, hits; hybridization with 1 M CDYL2 chromo (so in the source); two subarrays
T2 construct: 1-75; made in house; host or cells: E. coli BL21
T2 sequence (Q8N8U2 1-75): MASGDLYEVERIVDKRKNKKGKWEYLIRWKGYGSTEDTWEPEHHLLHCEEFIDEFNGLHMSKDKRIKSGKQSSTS
Description: as §1

[7] = tested on: Millipore #07-449, anti-H3K27me3; test: Histone peptide microarray, Millipore 07-449; conditions: Millipore 07-449 (anti-H3K27me3) hits, average signal per peptide
[8] = tested on: ABClonal #A2355, anti-H3K4me1; test: Histone peptide microarray, ABclonal A2355; conditions: Abclonal A2355 (anti-H3K4me1) hits
Description: as §1

[9] = target: T2, CDYL2 chromo; test: Fluorescence polarization assay, CDYL2 chromo; conditions: 10 nM N-terminal FAM peptide, 25 mM HEPES pH 7.5, 100 mM NaCl, 0.05% NP-40, average of 4 measurements from 2 independent experiments, error SD (Figure 4C)
Description: Plasmids encoding N-terminal GST fusions of each reader domain (Supplementary Table S1) were transformed into BL21 E. coli and protein expression was induced with 0.5 mM IPTG at 16°C for 6–16 h. Induced bacterial pellets were suspended in 30 mL cold 1× PBS supplemented with 1 mM DTT and 1 mM PMSF. Next, bacteria were incubated with lysozyme (Thermo #89833 LOT#ta262343) and 1 μL of Pierce universal nuclease (Pierce #88702 LOT#00775219) on ice for 30 min followed by 3 rounds of sonication (30 s sonication with 10 s rest, all on ice) using a Qsonica ultrasonic processor (500 W 20 kHz with 1/8” microtip) at 40% amplitude. Lysed bacteria were centrifuged at 38465 rcf for 45 min at 4°C. Cleared supernatant was incubated with 5 mL of Glutathione resin (Thermo #16101 LOT#UD285112) with rotation at 4°C for 16 h. Bound protein was washed 3× with 10 mL cold 1× PBS and eluted twice with 10 mL of 25 mM HEPES pH 7.5, 10 mM L-glutathione (Sigma), and 100 mM NaCl. Protein was concentrated by centrifugation at 1,500 rpm on a Sorvall Legend X1 centrifuge in Amicon Ultra-15 centrifugal filter units (UFC#903024). Protein was resuspended in 25 mM HEPES pH 7.5 and 100 mM NaCl and concentrated by centrifugation as above three times. Protein was quantified by absorbance measurement at 280 nm divided by the computed extinction coefficient (ExPASy) ([Gasteiger et al., 2003]) of the GST-tagged protein domain.
Peptides functionalized with N-terminal 5-carboxyfluorescin (FAM) were synthesized by Genscript. All 7-mer motifs were synthesized with flanking glycines to mimic the Kme-OPL design. Binding assays were done in black 384 well plates (Corning #3575). […] Polarization was measured on a Synergy Neo fluorescence plate reader (Biotek) with a 485 ± 10 nm excitation filter and a 528 ± 10 nm emission filter. […] Anisotropy units (A) were calculated using the equation A = (2P)/(3-P). Dissociation constants were determined by non-linear regression analysis of anisotropy curves by specific binding with Hill slope in GraphPad version 8.3.0.

Row | Avg Signal [5] | Avg Signal [6] | Kd [9] [µM] | Compound | Avg Signal [1] | Avg Signal [2] | Avg Signal [3] | Avg Signal [4] | Avg Signal [7] | Avg Signal [8]
1 | 0.6312 | 0.1889 | – | ARTKQTAR(Me2a)K(Me2)STGGKAPRKQL-K(Biot)-NH2 [H3.1R8me2aK9me2] | 0.0007823 | 0.006391 | 0.547 | 0.1269 | – | –
2 | 0.8612 | 0.4762 | – | ARTKQTAR(Me)K(Me3)STGGKAPRKQL-K(Biot)-NH2 [H3.1R8me1K9me3] | 0.005418 | 0.7313 | 0.134 | 0.156 | 0.03826 | 0.008113
3 | 0.9552 | 1 | – | Ac-TARK(Me2)STGGKAPRKQLATKAARK(Me2)SAP-Peg-K(Biot)-NH2 [H3.1K9me2K27me2] | 0.04684 | 0.0006693 | – | 0.004725 | 0.009651 | 0.0002867
4 | 0.04277 | 0.1727 | – | Ac-APRKQLATKAAR(Me2a)K(Me3)SAPSTGG-Peg-Biot [H3.3R26me2aK27me3] | 0.914 | 0.0032 | 0.1003 | 0.0125 | 0.2433 | –
5 | 0.8941 | 0.425 | – | AR(Me2a)TKQTARK(Me2)STGGKAPRKQL-Peg-Biotin [H3.1R2me2aK9me2] | 0.0005026 | – | – | 0.226 | 0.0074 | 0.01048
6 | 0.5401 | 0.2455 | – | ARTKQTAR(Me)K(Me2)STGGKAPRKQL-K(Biot)-NH2 [H3.1R8me1K9me2] | – | 0.001142 | 0.4249 | 0.138 | 0.003186 | 0.001447
7 | 0.8359 | 0.3975 | – | ARTKQTAR(Me2a)K(Me3)STGGKAPRKQL-K(Biot)-NH2 [H3.1R8me2aK9me3] | 0.008858 | 0.6713 | 0.2106 | 0.1096 | 0.01827 | 0.0005778
8 | 0.6538 | 0.1904 | – | ARTKQTAR(Me2s)K(Me2)STGGKAPRKQL-K(Biot)-NH2 [H3.1R8me2sK9me2] | 0.0002216 | – | 0.3791 | 0.1111 | – | –
9 | 0.7946 | 0.2985 | – | ARTKQTARK(Me2)STGGK(Ac)APRKQL-K(Biot)-NH2 [H3.1K9me2K14ac] | 0.0003203 | 0.00928 | – | 0.2875 | 0.00428 | 0.01354
10 | 0.04671 | 0.05586 | – | PEPAKSAPAPKKGSK(Ac)KAVTKAQKK-Peg-Biot (chain 2 KAVTKAQKK-{Peg-Biot}; not fully specified; reading uncertain) [Peptide H2BK15ac] | – | 0.01254 | – | 0.0005218 | 0.004399 | 0.00117
11 | 1 | 0.3941 | – | ARTKQTAR(Me2s)K(Me3)STGGKAPRKQL-K(Biot)-NH2 [H3.1R8me2sK9me3] | 0.01037 | 0.5557 | 0.1271 | 0.1225 | 0.05357 | –

Second part, the compound before the results:

Row | Compound | Avg Signal [5] | Avg Signal [6] | Kd [9] [µM] | Avg Signal [1] | Avg Signal [2] | Avg Signal [3] | Avg Signal [4] | Avg Signal [7] | Avg Signal [8]
12 | ARTK(Me3)QTARK(Me2)STGGKA-Peg-Biot [H3.1K4me3K9me2] | 0.4645 | 0.1809 | – | 0.005297 | 0.02282 | – | 0.004396 | 0.04855 | –
13 | ARTK(Me3)QTARK(Me3)STGGKAPRKQL-K(Biot)-NH2 [H3.1K4me3K9me3] | 0.8973 | 0.4091 | – | 0.02074 | 1 | 0.1303 | 0.01482 | 0.1282 | 0.008666
14 | C[C@H](NC(=O)[C@H](Cc1c[nH]c2ccccc12)NC(=O)CN)C(=O)N[C@@H](Cc1ccc(O)cc1)C(=O)N[C@@H](CCCC[N+](C)(C)C)C(=O)N[C@H](C(=O)NCC(=O)N[C@@H](CCCCN)C(=O)NCC(=O)O)[C@@H](C)O [GWAY(Kme3)TGKG] (H-GWAY[Lys(Me3)]TGKG-OH) | – | – | 0.1 ± 0.0066 | – | – | – | – | – | –
15 | C[C@H](NC(=O)[C@H](CCCCN)NC(=O)CN)C(=O)N[C@@H](CCCCN)C(=O)N[C@@H](CCCC[N+](C)(C)C)C(=O)N[C@H](C(=O)NCC(=O)N[C@@H](CCCCN)C(=O)NCC(=O)O)[C@@H](C)O [GKAK(Kme3)TGKG] (H-GKAK[Lys(Me3)]TGKG-OH) | – | – | 3.6 ± 0.73 | – | – | – | – | – | –
16 | ARTK(Me)QTARK(Me2)STGGKA-Peg-Biot [H3.1K4me1K9me2] | 0.4754 | 0.2405 | – | 0.0001122 | 0.004399 | – | 0.7578 | 0.001269 | 0.6304
17 | ARTK(Me3)QTAR(Me2s)K(Me3)STGGKAPRKQL-K(Biot)-NH2 [H3.1K4me3R8me2sK9me3] | 0.7903 | 0.4093 | – | 0.01805 | 0.5974 | 0.09278 | – | 0.05738 | 0.001264
18 | ARTK(Me2)QTARK(Me2)STGGKA-Peg-Biot [H3.1K4me2K9me2] | 0.2515 | 0.1337 | – | 0.0004919 | 0.001292 | – | 0.2534 | – | 0.2431
19 | C[C@H](NC(=O)[C@@H](NC(=O)CNC(=O)c1ccc2c(c1)C(=O)OC21c2ccc(O)cc2Oc2cc(O)ccc21)[C@@H](C)O)C(=O)N[C@@H](CCCNC(=N)N)C(=O)N[C@@H](CCCC[N+](C)(C)C)C(=O)N[C@@H](CO)C(=O)N[C@H](C(=O)NCC(=O)NCC(=O)O)[C@@H](C)O [GTAR(Kme3)STGG] (5FAM-GTAR[Lys(Me3)]STGG-OH) | – | – | 18.4 ± 6 | – | – | – | – | – | –
20 | ARTK(Ac)QTARK(Me3)STGGK(Ac)APRK(Ac)QL-K(Biot)-NH2 [H3.1K4acK9me3K14acK18ac] | 0.4242 | 0.3091 | – | 0.01317 | 0.7316 | 0.09657 | – | 0.04004 | –
